Patent US4416892A, “Method of treating hypersensitivity disease with benzoxazole derivatives” (Lilly Industries Limited, priority 1981, dated 1983)

Columns and labels:
[1] = test system: SRS-A release; assay: guinea-pig chopped lung test (inhibition of SRS-A / mediator release); format: cell-based; settings: Cavia porcellus, 0.25 h; 3×10^-5 M; ovalbumin-sensitised guinea pig lung, antigen challenge, 37° C., 15 mins; mean of four samples
Method: These tests are well-recognised as indicative of anti-allergy activity in humans and mammals in general. Compounds were tested in the guinea pig chopped lung test referred to above. […] Male albino guinea pigs (250-350 g) were sensitised with ovalbumin (100 mg s/c+100 mg i p.) and three weeks later killed, their lungs removed and perfused clear of blood with Tyrode's solution. The lungs were chopped into 0.5 mm cubes and divided into 400 mg aliquots. After washing and equilibration at 37° C., the aliquots were challenged with antigen in the presence or absence of the test compound. One control group was not challenged and was used to assess non-anaphylactic SRS-A release. Following incubation with rocking at 37° C. for 15 mins, each supernatant was removed and bio-assayed. Results are expressed as the percentage inhibition of SRS-A release after exposure to 3×10^-5M solutions of test compound. Each result is the mean of four samples.

[2] = test system: allergic bronchospasm; assay: Herxheimer test (allergic bronchospasm in sensitised guinea pigs); format: in vivo, guinea pig; settings: dose 50 (first column; head is a drawing), oral, 4 hours before ovalbumin challenge, mepyramine 0.5 mg/kg s.c.; ratio of 1.4 or greater significant
Method: Male guinea pigs were sensitised with ovalbumin and then exposed to ovalbumin aerosol (1% w/v solution) in an observation chamber. The animals were kept in the exposure chamber until symptoms of respiratory distress, terminating in a characteristic convulsive cough. The time of exposure is the "collapse time". […] Accordingly, the response to each compound in the presence of mepyramine (0.5 mg/kg s.c.) given half an hour before challenge was studied. The compound itself was given orally four hours before antigen challenge. A protection ratio of 1.4 or greater is considered significant.

Row | Compound | inhibition at 30 µM [1] [%] | protection ratio [2]
1 | CC(C(=O)O)c1ccc2nc(-c3ccccc3Cl)oc2c1 (stereo not drawn) [2-(2-chlorophenyl)-α-methyl-6-benzoxazoleacetic acid] | 16 | 
2 | CC(C(=O)O)c1ccc2oc(-c3cccc(C(F)(F)F)c3)nc2c1 (stereo not drawn) [2-(3-trifluoromethylphenyl)-α-methyl-5-benzoxazoleacetic acid] | 27 | 
3 | CC(C(=O)O)c1ccc2oc(-c3ccc(Cl)cc3)nc2c1 (stereo not drawn) [2-(4-chlorophenyl)-α-methyl-5-benzoxazoleacetic acid] | 62 | 2.7
4 | CC(C(=O)O)c1ccc2nc(-c3ccc(Cl)cc3)oc2c1 (stereo not drawn) [2-(4-chlorophenyl)-α-methyl-6-benzoxazoleacetic acid] | 38 | 
5 | CC(C(=O)O)c1ccc2oc(-c3ccc(F)cc3)nc2c1 (stereo not drawn) [2-(4-fluorophenyl)-α-methyl-5-benzoxazoleacetic acid] | 36 | 
